Data taken from US20250099530A1, “COMPOUND FOR USE IN PREVENTING AND/OR TREATING AN INFECTION CAUSED BY SARS-COV-2” (priority 2022, published 2025).
Entries after “also recorded” stand apart in the source; their conditions may differ.

Columns and labels:
[1] = test system: caspase; conditions: cited from earlier work
[2] = test system: HIV; conditions: cited from earlier work
[3] = test system: SIV; conditions: SIV-infected rhesus macaques; cited from earlier work
[4] = test system: SARS-CoV-2; assay: COVID-19 golden Syrian hamster model; type: in vivo; conditions: for viral replication decrease in the lungs compared to vehicle / viral load and viral replication in the lungs: 10 mg/kg IP on Day 0 (t+1 h) and Day 1, lungs at 2 dpi; for viral load and viral replication in the lungs: versus untreated groups; for clinical scores and body weight change vs Day 0: 10 mg/kg IP on Day 0 (t+1 h) and Day 1, versus infected untreated group
[5] = test system: SARS-CoV-2; conditions: cited from earlier work
[6] = test system: SARS-CoV-2; assay: Antiviral activity, full treatment: Spike staining by flow cytometry and western blot of S and N proteins in infected cells; type: cell-based, SARS-CoV-2 strain BetaCoV/France/IDF0372/2020
Description: A) Vero E6/TMPRSS2 cells non infected or infected with the SARS-CoV-2 at MOI 0.05 were incubated with different concentrations of QVDM-OPh (10, 25, 50, 100 μM), Vx765 (25 μM) or Remdesivir (10 μM) for 1 h, before the infection. Afterwards, the cells were cultured with drug-containing medium until the end of the experiment (Full treatment) without removing the virus from the culture. After 72 h post-infection, cells were collected and stained for mortality and infection rate analysis. The % of infection is represented in each plot of analysis.
B) Results represent the % of infection detected by the Spike protein staining in the different infected and treated cells compared to the infected untreated group. Results represent mean+/−SD of 4 independent experiments with 3 independent points for each condition separately. Statistical significance was assessed applying One-way ANOVA test followed by Dunnett's post-hoc test using GraphPad Prism software (GraphPad Software Inc., USA). (****P<0.0001).
A-B) Vero E6/TMRPSS2 cells were pre-treated with QVDM-OPh peptide or Remdesivir at the indicated concentrations for 1 h, before the infection with the virus at MOI=0.05. Afterwards, the cells were cultured with drug-containing medium until the end of the experiment (Full treatment). A well with non-infected cells was performed as a negative control of the infection. At 72 h post-infection, cells were lysed by RIPA buffer and western blot analysis was performed to detect the expression of the Spike protein (S), the full length and S1 domain, and the Nucleocapsid protein (N). GAPDH was used as loading control. Results represent mean±SD, from 4 independent experiments with 3 independent points per condition.
To evaluate the toxicity of the QVDM-OPh on Vero E6 Cells and the antiviral efficacy, the percentage of mortality and the percentage of infected cells were measured by flow cytometry. Cells were cultured overnight in 24-well cell-culture petri-dish with a density of 75×10^4 cells/well. The next day, cells were pretreated or not for 1 h with the different doses of the indicated QVDM-OPh, Vx765 or Remdesivir at different concentrations. Then, the virus was subsequently added at MOI 0.05 to allow infection for 2 h in 250 μl/well. Afterwards, complete media was added to cell culture to a final volume of 500 μl/well. Drugs were added each day at same concentration to cell culture. At 72 h post-infection, the cell supernatant was collected and frozen immediately at −80° C. for viral extraction and qRT-PCR amplification. The cells were collected and a part thereof was used to flow cytometry analysis to measure the rate of infection using an intracellular staining against Spike protein (SARS-CoV-2 Spike Protein-Alexa 647, Cat no. 51-6490-82, eBioscience) and a Cytofix/cytoperm fixation permeabilization kit (Cat no. 554714, BD) according to the manufacturer's instructions. Toxicity was analysed using Viability 405/452 Fixable Dye (Cat no. 130-109-814, from Miltenyi Biotec) according to the manufacturer's instructions. […] After the staining, the cells were fixed with 2% Paraformaldehyde (FPA) and then analyzed on a Fortessa Flow Cytometer. 30 000 events were recorded for each condition in triplicate. […] The other part of the cells was lysed in RIPA lysis buffer (Invitrogen, Cat no. 10230544) containing protease (Roche) and phosphatase inhibitors (Invitrogen) for further quantification and immunoblotting analysis, or in LBP buffer for RNA purification and RT-qPCR analysis. […]

[7] = test system: SARS-CoV-2; assay: Intracellular qRT-PCR of SARS-CoV-2 S, N and NSP6 genes in infected cells, full treatment; type: cell-based, SARS-CoV-2 strain BetaCoV/France/IDF0372/2020; conditions: 72 h post-infection, normalized to GAPDH
[8] = test system: SARS-CoV-2; assay: Virus yield in infected cell supernatants by qRT-PCR (N and NSP6 genes); type: cell-based, SARS-CoV-2 strain BetaCoV/France/IDF0372/2020
[9] = test system: Vero E6/TMPRSS2 cells
[10] = Severe acute respiratory syndrome coronavirus 2, 72 h, read-out: inhibition of the viral replication
[11] = full treatment, 72 h post-infection

Row | Compound | caspase inhibitory activity [1] | HIV viral replication [2] | AIDS disease progression [3] | viral replication decrease in the lungs compared to vehicle [4] [%] | viral load and viral replication in the lungs [4] | clinical scores and body weight change vs Day 0 [4] | control of an in vitro infection caused by SARS-CoV-2 [5] | toxicity ([5]; in vitro) | control of SARS-CoV-2 infection in vitro ([6]; 25 μM and 50 μM) | inhibition at 10 µM [6, 10] [%] | inhibition at 25 µM [6, 10] [%] | inhibition at 50 µM [6, 10] [%] | reduction of viral replication compared with Remdesivir [6, 11] | relative expression of the Spike, Nucleocapsid and NSP6 genes inside the cells [7] | SARS-CoV-2 in the supernatant (N and NSP6 gene qRT-PCR) [8, 11] | inhibition of secretion/production of the virus from the cell to the media, compared with QVD-OPh ([8]; identical concentration, full treatment and post-entry (FIGS. 5 and 9)) | toxicity ([9]; 25 μM and 50 μM) | toxicity effect on Vero E6/TMPRSS2 cells ([9]; different concentrations (25, 50, 100 μM each day), cells infected or not at MOI 0.05, 72 h post-infection)
1 | CC(C)C(NC(=O)c1ccc2ccccc2n1)C(=O)NC(CC(=O)O)C(=O)COc1c(F)cccc1F (stereo not shown) [QVD-OPh] | broad caspase inhibitor | inhibits also the viral replication; also recorded: same anti-viral effect | AIDS disease progression is prevented | – | – | – | – | – | – | – | – | – | – | – | – | – | – | –
2 | CC(C)C(NC(=O)c1ccc2ccccc2n1)C(=O)NC(CCC(=O)O)C(=O)COc1c(F)cccc1F (stereo not shown) [QVE-OPh] | no caspase inhibitory activity | same anti-viral effect | – | 52 | significant reduction | encouraging results | highly effective | without any toxicity | – | – | – | – | – | – | – | – | – | –
3 | COC(=O)CC(NC(=O)C(NC(=O)c1ccc2ccccc2n1)C(C)C)C(=O)COc1c(F)cccc1F (stereo not shown) [QVDM-OPh] | pan-caspase inhibitor | same anti-viral effect | – | 70 | significant reduction | encouraging results | – | – | highly effective | ~50 | ~70 | ~99 | comparable | reduce significantly | significantly reduce | more efficiently than QVD-OPh | without any toxicity | no toxicity effect
